Square brackets hold non-standard residues; d marks the D form. Ends that are not written are not given here. PEG2 = NCCOCCOCCC(=O)O
Legend:
[1] = test system: P. aeruginosa (ATCC 27853); assay: Mouse model of Pseudomonas (bacterial) keratitis; type: in vivo
Description: A circular wound was created on the mouse cornea by removing the epithelium and infected with 10^5 colony forming units (CFU) of P. aeruginosa (ATCC® 27853™ (American Type Culture Collection, Manassas, Va.)). Infected wounds were treated with saline (0.9% sodium chloride, vehicle control) or saline containing indicated concentrations of peptide every 15 minutes for 2 hours, then every 30 minutes for 3 hours on the first day. Infected wounds were treated twice on the second day and once on the third day. Mice were killed at 48 hours post-infection, and CFU/eye were quantified. The means were plotted and are representative of 5 to 9 mice per group. Mann Whitney test was performed for each group as compared to the saline control group. *P=0.014. In compound names such as BCC02-5RMP used herein, “R” represents arginine, and “MP” represents a small PEG molecule as defined elsewhere herein (such as, for example but not by way of limitation, “AEEP”).
(§1) A circular wound was created on the mouse cornea by removing the epithelium, and the wound was infected with 10^5 CFU of P. aeruginosa (ATCC® 27853™ (American Type Culture Collection, Manassas, Va.)). Infected wounds were treated with saline or saline containing indicated concentrations (2, 5, 10, and 20 mg/ml) of peptide every 30 minutes for 6 hours on the first day. Infected wounds were treated twice on the second day and once on the third day. Mice were killed at 48 hours post-infection, and the CFU/eye were quantified. The means are plotted and are representative of 5 mice per group. Mann Whitney test was performed for each group as compared to the saline control group. *P=0.015 and **P=0.097.
as §1, with “representative of 4 to 5 mice” for “representative of 5 mice”, “control group.” for “control group. *P=0.015 and **P=0.097.”
as §1, with “group. **P=0.0079 by” for “group.”, “test” for “test was performed for each group”, “group.” for “group. *P=0.015 and **P=0.097.”
A circular wound (2 mm) was created on the mouse cornea by removing the epithelium and infecting the wound with 10^5 CFU of P. aeruginosa (ATCC® 27853™ (American Type Culture Collection, Manassas, Va.)). Infected wounds were treated with saline or saline containing indicated concentrations of peptide every 15 minutes for 2 hours, then every 30 minutes for 3 hours on the first day. […] Mice were killed at 48 hours post-infection, and the colony forming units per eye (CFU/eye) were quantified. […]

[2] = test system: Pseudomonas aeruginosa ATCC 27853; assay: In vitro bactericidal assay, P. aeruginosa ATCC 27853 (FIGS. 12-14); type: cell-based; settings: FIG. 14; pH 5.5; 180 minutes; even at the lower concentration (75 μg/ml)
Description: (§2) Each of the test peptides was used at 25, 12.5 6.25, and 3.12 μM. The gentamicin was used at 4 μg/ml. 1×10^6/ml Pseudomonas aeruginosa ATCC® 27853™ (American Type Culture Collection, Manassas, Va.) were incubated with the peptides, negative buffer control (tryptone saline), and positive control gentamicin for 180 minutes at pH 7.2. 50 μl aliquots were plated out on agar plates and incubated overnight. Colony forming units were counted after overnight incubation and CFU/ml calculated.
as §2, with “12.5,” for “12.5”, “5.5.” for “7.2.”
FIG. 14 is a comparison of bactericidal activity of CAP37 peptides 120-146WR (SEQ ID NO:30), 120-146WH (SEQ ID NO:31), 120-146QR (SEQ ID NO:28), 120-146QH (SEQ ID NO:29), 120-146QR-5RMP (SEQ ID NO:32), and 120-146QH-5RMP (SEQ ID NO:33) for Pseudomonas aeruginosa ATCC® 27853™ (American Type Culture Collection, Manassas, Va.). 1×10^6/ml Pseudomonas aeruginosa ATCC® 27853™ were incubated with the peptides at 150, 75, and 37.5 μg/ml and negative buffer control (tryptone saline) for 180 minutes at pH 5.5. 50 μl aliquots were plated out on agar plates and incubated overnight. Colony forming units were counted after overnight incubation and CFU/ml calculated.
For FIGS. 10-13, in vitro bactericidal assays were performed using a starting inoculum of 1×10^6 CFU/ml of the bacterial suspension. The CFU remaining at the end of the 60-180 minute incubation was determined, and the data was plotted as log reduction in CFU/ml.
In particular, each of the test peptides (CAP37 peptides 120-146WR, 120-146WH, and 95-122 (SEQ ID NOS:30, 31, and 26, respectively)) was used at 25, 12.5, 6.25, and 3.12 μM. Gentamicin was used at 4 μg/ml. 1×10^6/ml Acinetobacter baumannii ATCC® BAA-747™ or Pseudomonas aeruginosa ATCC® 27853™ (American Type Culture Collection, Manassas, Va.) were incubated with the peptides, negative buffer control (tryptone saline), and positive control gentamicin at pH 5.5 or 7.2. A 60 minute incubation was used for Acinetobacter baumannii ATCC® BAA-747™, while a 180 minute incubation was used for Pseudomonas aeruginosa ATCC® 27853™. 50 μl aliquots were plated out on agar plates and incubated overnight. Colony forming units were counted after overnight incubation and CFU/ml calculated.
For FIG. 14, 1×10^6/ml Pseudomonas aeruginosa ATCC® 27853™ were incubated with each of the test peptides (CAP37 peptides 120-146WR, 120-146WH, 120-146QR, 120-146QH, 120-146QR-5RMP, and 120-146QH-5RMP (SEQ ID NOS:30, 31, 28, 29, 32, and 33, respectively)) at 150, 75, and 37.5 μg/ml, or negative buffer control (tryptone saline), for 180 minutes at pH 5.5. 50 μl aliquots were plated out on agar plates and incubated overnight. Colony forming units were counted after overnight incubation and CFU/ml calculated.

“(AEEP)-(AEEP)-RRRRGTRCQVAGWGSQRSGGRLSRFPRFVNVR ([PEG2][PEG2]RRRRGTRCQVAGWGSQRSGGRLSRFPRFVNVR) [120-146QR-5RMP]” was tested, and the “mice with no viable bacteria in the eye after treatment” value ([1]; the 10 and 20 mg/ml groups together) was “Six of the 10 mice”, the “CFU/eye vs saline, in words” value ([1]; topical doses of 10 and 20 mg/ml, 48 hours post-infection) was “significantly reduced the CFU/eye” and the “reduction in CFU” value [2] was ~6 log.

— US11884710B2, “Peptide compounds and methods of use in wound healing” (priority 2013, dated 2024)
